# Data: patent US8895559B2, “Quinoxalines derivatives and pharmaceutical compositions and kits” (Merck Patent GmbH, priority 2010, dated 2014)
# pIC50: −log10 of the molar value.
# Tested on: PI3K
# Assay: Cellular testing of PI3K inhibitors: P-S473-PKB Luminex assay in PC3 cells
# Type: cell-based
# Conditions: PI3K-dependent phosphorylation of PKB at Serin 473 in PC3 cells
# Procedure: Description of the Method for the Cellular Testing of PI3K Inhibitors
# The cellular assay for determination of the P-S473-PKB level is carried out as a Luminex assay in 96-well format in PC3 cells.
# PC3 cells are sown out with 20,000 cells per well in 100 μl medium (45% RPMI1460/45% Ham's F12/10% FCS) and incubated on the following day for 30 min with a serial dilution of the test substance (7 concentrations) under serum-free conditions. […] The lysates are incubated overnight at 4° C. with shaking with Luminex beads to which an anti-total PKB antibody is coupled. The detection is carried out on the following day by addition of a P-S473-PKB antibody and a species-specific PE-labelled secondary antibody. The detection of P-S473-PKB is carried out by measurement in a Luminex 100 instrument by determination of 100 events per cavity in a measurement time of 60 sec. […] The values of the preparations treated with test substance are calculated from this as percent of control, and IC50 values are determined by means of RS1.
row,Structure (SMILES),pIC50
1,COc1cc(Nc2nc3ccccc3nc2NS(=O)(=O)c2cn(C)c(CN(C)C)n2)c(OCCC(C)O)c(OC)c1 (stereo not drawn) [drawing 153],8.34
2,COc1cc(Nc2nc3ccccc3nc2NS(C)(=O)=O)c(OCCC(C)O)c(OC)c1 (stereo not drawn) [drawing 155],7.42
3,COc1cc(Nc2nc3ccccc3nc2NS(=O)(=O)C2CCS(=O)(=O)C2)c(OCCCO)c(OC)c1 (stereo not drawn) [drawing 157],7.28
4,COc1cc(Nc2nc3ccccc3nc2NS(=O)(=O)c2ccc(F)cc2)c(OCCOCCO)c(OC)c1 [drawing 159],8.85
5,COc1cc(Nc2nc3ccccc3nc2NS(=O)(=O)c2cn(C)cn2)c(OCCS(C)(=O)=O)c(OC)c1 [drawing 161],7.07
6,COc1cc(Nc2nc3ccccc3nc2NS(=O)(=O)c2cn(C)cn2)c(OCCCO)c(OC)c1 [drawing 163],7.02
7,COc1ccc(CCCO)c(Nc2nc3ccccc3nc2NS(=O)(=O)c2cn(C)cn2)c1 [reference compound],6.43
8,COc1ccc(CCCO)c(Nc2nc3ccccc3nc2NS(=O)(=O)c2cn(C)c(CN(C)C)n2)c1 [reference compound],5.96
9,COc1ccc(CCO)c(Nc2nc3ccccc3nc2NS(C)(=O)=O)c1 [reference compound],5.31
10,COc1ccc(CCCO)c(Nc2nc3ccccc3nc2NS(=O)(=O)C2CCS(=O)(=O)C2)c1 (stereo not drawn) [reference compound],6.01
11,COc1ccc(CCO)c(Nc2nc3ccccc3nc2NS(=O)(=O)c2ccc(F)cc2)c1 [reference compound],6.54
12,COc1ccc(CCCS(C)(=O)=O)c(Nc2nc3ccccc3nc2NS(=O)(=O)c2cn(C)cn2)c1 [reference compound],5.59
13,COc1cc(Nc2nc3ccccc3nc2NS(=O)(=O)c2cn(C)cn2)cc(OC)c1 [reference compound],6.01

# Same assay, conditions: PI3 kinase inhibition, cell
row,Structure (SMILES),pIC50
1,COc1cc(Nc2nc3ccccc3nc2NS(=O)(=O)c2cccc(C(=O)NCC(F)(F)F)c2)c(OCCCO)c(OC)c1 [Compound A105],5.00 to 7.00
2,"COc1cc(Nc2nc3ccccc3nc2NS(=O)(=O)c2ccc(CN)cc2)c(OCCCO)c(OC)c1 [Compound A106, 4-aminomethyl-N-{3-[2-(3-hydroxypropoxy)-3,5-dimethoxy-phenylamino]-quinoxalin-2-yl}benzenesulfonamide]",7.00 to 9.00
3,COc1cc(Nc2nc3ccccc3nc2NS(=O)(=O)c2cccc(C(=O)N3CC(F)(F)C3)c2)c(OCCCO)c(OC)c1 [Compound A107],5.00 to 7.00
4,COc1cc(Nc2nc3ccccc3nc2NS(=O)(=O)c2cccc(C(=O)N3CCC3)c2)c(OCCCO)c(OC)c1 [Compound A108],5.00 to 7.00
5,"COc1cc(Nc2nc3ccccc3nc2NS(=O)(=O)c2cccc(CN(C)C)c2)c(OCCCO)c(OC)c1 [Compound A109, 3-Dimethylaminomethyl-N-{3-[2-(3-hydroxy-propoxy)-3,5-dimethoxyphenylamino]quinoxalin-2-yl}benzenesulfonamide]",7.00 to 9.00
6,"COc1cc(Nc2nc3ccccc3nc2NS(=O)(=O)c2ccc(CN3CC(F)(F)C3)cc2)c(OCCCO)c(OC)c1 [Compound A110, 4-(3,3-Difluoroazetidin-1-ylmethyl)-N-{3-[2-(3-hydroxypropoxy)-3,5-dimethoxyphenylamino]-quinoxalin-2-yl}benzenesulfonamide]",7.00 to 9.00
7,"COc1cc(Nc2nc3ccccc3nc2NS(=O)(=O)c2ccc(CN3CCC3)cc2)c(OCCCO)c(OC)c1 [Compound A111, 4-Azetidin-1-ylmethyl-N-{3-[2-(3-hydroxypropoxy)-3,5-dimethoxyphenylamino]-quinoxalin-2-yl}-benzenesulfonamide]",5.00 to 7.00
8,COc1cc(Nc2nc3ccccc3nc2NS(=O)(=O)c2ccn(C)n2)c(OCCOCCO)c(OC)c1 [Compound A112],5.00 to 7.00
9,COc1cc(Nc2nc3ccccc3nc2NS(=O)(=O)c2cn(C)c(CN(C)C)n2)c(OCCCCO)c(OC)c1 [Compound A113],5.00 to 7.00
10,COc1cc(Nc2nc3ccccc3nc2NS(=O)(=O)C(F)F)c(OCCCO)c(OC)c1 [Compound A114],5.00 to 7.00
11,COc1cc(Nc2nc3ccccc3nc2NS(=O)(=O)C(F)F)c(OCCC(C)O)c(OC)c1 (stereo not drawn) [Compound A115],7.00 to 9.00
12,"COc1cc(Nc2nc3ccccc3nc2NS(=O)(=O)c2cccc(CN3CCC3)c2)c(OCCCO)c(OC)c1 [Compound A116, 3-Azetidin-1-ylmethyl-N-{3-[2-(3-hydroxypropoxy)-3,5-dimethoxyphenylamino]-quinoxalin-2-yl}-benzenesulfonamide]",7.00 to 9.00
13,COc1cc(Nc2nc3ccccc3nc2NS(=O)(=O)c2ccn(C)n2)c(CCCCO)c(OC)c1 [Compound A117],7.00 to 9.00
14,"COc1cc(Nc2nc3ccccc3nc2NS(=O)(=O)c2ccn(C(F)(F)C(=O)N(C)C)n2)c(OCCC(C)O)c(OC)c1 (stereo not drawn) [Compound A118, 2,2-difluoro-2-(3-{3-[2-(3-hydroxybutoxy)-3,5-dimethoxy-phenylamino]-quinoxalin-2-ylsulfamoyl}pyrazol-1-yl)-N,N-dimethylacetamide]",5.00 to 7.00
15,COc1cc(Nc2nc3ccccc3nc2NS(=O)(=O)c2ccn(C(F)(F)C(=O)N(C)C)n2)c(OCCCO)c(OC)c1 [Compound A119],5.00 to 7.00
16,COc1cc(Nc2nc3ccccc3nc2NS(=O)(=O)c2ccn(CC(=O)N(C)C)n2)c(OCCC(C)O)c(OC)c1 (stereo not drawn) [Compound A120],7.00 to 9.00
17,COc1cc(Nc2nc3ccccc3nc2NS(=O)(=O)c2ccn(C)n2)c(OC)c(OC)c1 [Compound A121],7.00 to 9.00
18,COc1cc(Nc2nc3ccccc3nc2NS(=O)(=O)c2ccn(CC(=O)N(C)C)n2)c(OCCCO)c(OC)c1 [Compound A122],7.00 to 9.00
19,CCN(CC)Cc1nc(S(=O)(=O)Nc2nc3ccccc3nc2Nc2cc(OC)cc(OC)c2OCCC(C)O)cn1C (stereo not drawn) [Compound A123],5.00 to 7.00
20,COc1cc(Nc2nc3ccccc3nc2NS(=O)(=O)c2cn(C)cn2)c2c(c1)OC(CO)CO2 (stereo not drawn) [Compound A124],5.00 to 7.00
21,COc1cc(Nc2nc3ccccc3nc2NS(=O)(=O)c2ccn(C)n2)c(OCCC(C)(C)O)c(OC)c1 [Compound A125],7.00 to 9.00
22,CCN(CC)Cc1nc(S(=O)(=O)Nc2nc3ccccc3nc2Nc2cc(OC)cc(OC)c2OCCCO)cn1C [Compound A126],5.00 to 7.00
23,COc1cc(Nc2nc3ccccc3nc2NS(=O)(=O)c2cn(C)cn2)c2c(c1)OCC(CO)O2 (stereo not drawn) [Compound A127],5.00 to 7.00
24,COc1cc(Nc2nc3ccccc3nc2NS(=O)(=O)c2cn(C)c(CN(C)C)n2)c(OCCC(C)(C)O)c(OC)c1 [Compound A128],5.00 to 7.00
25,"COc1cc(Nc2nc3ccccc3nc2NS(=O)(=O)c2ccn(CCN(C)C)n2)c(OCCC(C)O)c(OC)c1 (stereo not drawn) [Compound A129, 1-(2-Dimethylaminoethyl)-1H-pyrazole-3-sulfonic acid {3-[2-(3-hydroxybutoxy)-3,5-dimethoxy-phenylamino]quinoxalin-2-yl} amide]",7.00 to 9.00
26,"COc1cc(Nc2nc3ccccc3nc2NS(=O)(=O)c2ccn(CCN(C)C)n2)c(OCCCO)c(OC)c1 [Compound A130, 1-(2-Dimethylaminoethyl)-1H-pyrazole-3-sulfonic acid {3-[2-(3-hydroxypropoxy)-3,5-dimethoxy-phenylamino]quinoxalin-2-yl} amide]",7.00 to 9.00
27,COc1cc(Nc2nc3ccccc3nc2NS(=O)(=O)c2ccn(CC(=O)N(C)C)n2)c(OC)c(OC)c1 [Compound A131],7.00 to 9.00
28,"COc1cc(Nc2nc3ccccc3nc2NS(=O)(=O)c2ccc(CNC(C)=O)cc2)c(OCCCO)c(OC)c1 [Compound A132, N-(4-{3-[2-(3-hydroxypropoxy)-3,5-dimethoxyphenylamino]quinoxalin-2-ylsulfamoyl}benzyl)acetamide]",7.00 to 9.00

# Target: CK2 protein kinase (Homo sapiens, UniProt P68400)
# Sequence (P68400 whole entry): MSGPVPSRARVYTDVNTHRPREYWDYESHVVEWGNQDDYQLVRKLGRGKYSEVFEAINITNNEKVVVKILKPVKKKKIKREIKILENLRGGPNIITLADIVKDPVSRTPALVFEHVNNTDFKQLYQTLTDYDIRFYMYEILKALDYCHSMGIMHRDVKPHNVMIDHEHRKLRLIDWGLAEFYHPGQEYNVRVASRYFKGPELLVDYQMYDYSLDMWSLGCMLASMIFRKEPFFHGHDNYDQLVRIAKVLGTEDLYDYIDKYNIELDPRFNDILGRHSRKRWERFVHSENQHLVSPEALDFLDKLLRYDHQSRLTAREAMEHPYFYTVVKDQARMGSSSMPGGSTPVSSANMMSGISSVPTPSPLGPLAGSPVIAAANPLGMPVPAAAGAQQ
# Assay: not given
# Conditions: cited from earlier work
row,Structure (SMILES),pIC50
1,O=c1cc(N2CCOCC2)oc2c(-c3ccccc3)cccc12 [LY294002],5.00 to 5.30

# Tested on: phospholipases
# Assay: not given
# Conditions: cited from earlier work
row,Structure (SMILES),inhibitory activity on phospholipases
1,O=c1cc(N2CCOCC2)oc2c(-c3ccccc3)cccc12 [LY294002],slight inhibitory activity

# Tested on: neutrophils
# Assay: not given
# Conditions: treatment of neutrophils; Thelen et al. 1994; cited from earlier work
row,Structure (SMILES),fMLP-induced respiratory burst response
1,COC[C@H]1OC(=O)c2coc3c2[C@@]1(C)C1=C(C3=O)[C@@H]2CCC(=O)[C@@]2(C)C[C@H]1OC(C)=O [wortmannin],prevents

# Tested on: neutrophils
# Assay: not given
# Conditions: cited from earlier work
Structure (SMILES),neutrophil migration,superoxide release
O=c1cc(N2CCOCC2)oc2c(-c3ccccc3)cccc12 [LY294002],block,block
COC[C@H]1OC(=O)c2coc3c2[C@@]1(C)C1=C(C3=O)[C@@H]2CCC(=O)[C@@]2(C)C[C@H]1OC(C)=O [wortmannin],block,block
